Assay results from patent US10844069B2, “Pyrrolotriazine compounds as TAM inhibitors” (Incyte Corporation, priority 2016, dated 2020).

How the values were obtained:
Tyro3 = Tyro3 (Homo sapiens (Human), UniProt Q06418); test: TAM Enzymatic Assay (HTRF), Tyro3; format: biochemical
Procedure: (§1) The kinase assay buffer contained 50 mM HEPES, pH7.5, 10 mM MgCl2, 1 mM EGTA, 0.01% NP-40 and 2 mM DTT. 0.1 ul test compounds dissolved in DMSO were transferred from compound plates to white 384-well assay plates (Greiner […] plates). […] 4 ul enzyme solution (or assay buffer for the enzyme blank) was added to the appropriate wells in each plate, and then 4 ul/well substrate solution was added to initiate the reaction. The plate was protected from light and incubated at room temperature for 60 min. […] The plate was incubated for 1 h at room temperature, and HTRF (homogenous time resolved fluorescence) signal was measured on a PHERAstar FS plate reader (BMG labtech). Percentage of inhibition was calculated for each concentration and IC50 value was generated from curve fitting with GraphPad Prism software.

Axl = Axl (Homo sapiens (Human), UniProt P30530); test: TAM Enzymatic Assay (HTRF), phosphor-Axl; format: biochemical
Procedure: Autophosphorylation of Axl was carried out by incubating the recombinant Axl protein (Life Technologies, PV4275) in buffer containing 50 mM Tris, pH7.5, 0.2 mg/ml Axl, 5 mM ATP, 20 mM MgCl2 and 2 mM DTT at room temperature for 1 hour.
as §1

Tyro3, sequence (Q06418 41-890): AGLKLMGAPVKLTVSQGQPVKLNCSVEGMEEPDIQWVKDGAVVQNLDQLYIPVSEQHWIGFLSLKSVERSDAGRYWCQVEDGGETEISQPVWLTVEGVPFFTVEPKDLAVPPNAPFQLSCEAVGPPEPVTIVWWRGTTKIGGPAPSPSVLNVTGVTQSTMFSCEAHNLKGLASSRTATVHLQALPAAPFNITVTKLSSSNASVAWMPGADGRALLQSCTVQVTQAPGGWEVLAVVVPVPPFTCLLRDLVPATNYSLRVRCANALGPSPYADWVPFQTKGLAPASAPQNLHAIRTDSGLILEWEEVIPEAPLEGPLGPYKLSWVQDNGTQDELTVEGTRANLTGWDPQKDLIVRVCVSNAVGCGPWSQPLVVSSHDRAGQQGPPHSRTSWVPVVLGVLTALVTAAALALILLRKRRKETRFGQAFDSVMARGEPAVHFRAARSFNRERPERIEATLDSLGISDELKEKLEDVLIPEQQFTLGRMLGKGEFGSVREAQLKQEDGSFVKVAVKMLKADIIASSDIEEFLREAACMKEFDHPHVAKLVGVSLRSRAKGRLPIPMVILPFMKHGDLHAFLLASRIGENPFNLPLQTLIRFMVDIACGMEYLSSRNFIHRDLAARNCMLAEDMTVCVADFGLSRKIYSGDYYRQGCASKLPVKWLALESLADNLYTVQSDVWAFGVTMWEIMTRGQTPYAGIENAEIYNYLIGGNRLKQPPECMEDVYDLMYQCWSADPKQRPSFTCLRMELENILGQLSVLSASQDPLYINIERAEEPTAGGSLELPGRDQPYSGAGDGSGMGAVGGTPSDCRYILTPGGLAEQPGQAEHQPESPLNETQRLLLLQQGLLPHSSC
Axl, sequence (P30530 26-894): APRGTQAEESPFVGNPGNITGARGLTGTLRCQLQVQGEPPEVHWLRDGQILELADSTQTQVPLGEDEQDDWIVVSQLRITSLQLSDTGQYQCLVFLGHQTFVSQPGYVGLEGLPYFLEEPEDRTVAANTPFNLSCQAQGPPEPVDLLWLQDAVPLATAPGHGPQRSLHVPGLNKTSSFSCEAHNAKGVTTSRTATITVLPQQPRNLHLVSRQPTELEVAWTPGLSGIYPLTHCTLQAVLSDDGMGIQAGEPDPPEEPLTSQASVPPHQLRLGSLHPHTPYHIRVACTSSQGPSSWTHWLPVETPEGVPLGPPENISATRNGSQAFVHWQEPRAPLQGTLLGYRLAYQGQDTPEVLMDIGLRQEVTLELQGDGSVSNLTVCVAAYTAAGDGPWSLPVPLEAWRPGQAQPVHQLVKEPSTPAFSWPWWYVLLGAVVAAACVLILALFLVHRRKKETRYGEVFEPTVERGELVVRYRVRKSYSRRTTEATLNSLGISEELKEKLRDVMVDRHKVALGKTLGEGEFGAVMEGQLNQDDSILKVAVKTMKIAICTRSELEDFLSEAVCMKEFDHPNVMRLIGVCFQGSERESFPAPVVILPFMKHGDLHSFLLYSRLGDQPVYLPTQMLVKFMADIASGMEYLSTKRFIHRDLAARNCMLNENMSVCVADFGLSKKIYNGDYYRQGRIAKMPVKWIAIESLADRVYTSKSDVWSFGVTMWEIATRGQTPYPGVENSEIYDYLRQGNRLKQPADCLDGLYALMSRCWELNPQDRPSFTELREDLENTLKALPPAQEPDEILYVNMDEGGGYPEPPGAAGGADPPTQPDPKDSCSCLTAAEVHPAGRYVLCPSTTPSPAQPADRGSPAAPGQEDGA

## Cc1cn(C)nc1-n1c(=O)c(C(=O)Nc2ccc(-c3cc(C4CCN(C(=O)C(C)C)CC4)n4ncnc(N)c34)cc2)cn(C(C)C)c1=O [Example 138, N-(4-(4-Amino-7-(1-isobutyrylpiperidin-4-yl)pyrrolo[2,1-f][1,2,4]triazin-5-yl)phenyl)-3-(1,4-dimethyl-1H-pyrazol-3-yl)-1-isopropyl-2,4-dioxo-1,2,3,4-tetrahydropyrimidine-5-carboxamide]
Tyro3
  IC50: > 100 nM
Axl
  IC50: < 5 nM
